Experimental data published in patent US20220387602A1, “BIFUNCTIONAL DEGRADERS AND THEIR METHODS OF USE” (NOVARTIS AG, priority 2019, published 2022).
Entries after “also recorded” stand apart in the source; their conditions may differ.

Assays:
CRBN = CRBN (Homo sapiens, UniProt Q96SW2); test: CRBN displacement assay Format 1 (fluorescence polarization, BodipyFL-lenalidomide probe Compound HH); format: binding
Procedure, shortened: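 Fluorescence polarization competition: CRBN (nominal 100 nM final) pre-incubated 45 min at room temperature with compound, then BodipyFL-lenalidomide probe added (5 nM final; 0.9% DMSO).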

BTK = target: T1, BTK (Homo sapiens, UniProt Q06187); test: BTK-GFP protein abundance flow cytometry assay in HEK293A; format: cell-based; conditions: for BTK degradation Amax: % protein remaining at the concentration at which maximum degradation is seen, HEK293A; for BTK degradation Amax / DC50: 24 h; for DC50: concentration at which 50% maximal degradation was observed, HEK293A BTK-GFP sensor cells
T1 construct: the BTK open reading frame (ORF) was first shuttled from a pcDNA-DEST40-BTK vector; expressed in transfected cells; host or cells: HEK293A (Invitrogen R70507), lentiviral transduction, blasticidin selection
T1 sequence (Q06187 whole entry): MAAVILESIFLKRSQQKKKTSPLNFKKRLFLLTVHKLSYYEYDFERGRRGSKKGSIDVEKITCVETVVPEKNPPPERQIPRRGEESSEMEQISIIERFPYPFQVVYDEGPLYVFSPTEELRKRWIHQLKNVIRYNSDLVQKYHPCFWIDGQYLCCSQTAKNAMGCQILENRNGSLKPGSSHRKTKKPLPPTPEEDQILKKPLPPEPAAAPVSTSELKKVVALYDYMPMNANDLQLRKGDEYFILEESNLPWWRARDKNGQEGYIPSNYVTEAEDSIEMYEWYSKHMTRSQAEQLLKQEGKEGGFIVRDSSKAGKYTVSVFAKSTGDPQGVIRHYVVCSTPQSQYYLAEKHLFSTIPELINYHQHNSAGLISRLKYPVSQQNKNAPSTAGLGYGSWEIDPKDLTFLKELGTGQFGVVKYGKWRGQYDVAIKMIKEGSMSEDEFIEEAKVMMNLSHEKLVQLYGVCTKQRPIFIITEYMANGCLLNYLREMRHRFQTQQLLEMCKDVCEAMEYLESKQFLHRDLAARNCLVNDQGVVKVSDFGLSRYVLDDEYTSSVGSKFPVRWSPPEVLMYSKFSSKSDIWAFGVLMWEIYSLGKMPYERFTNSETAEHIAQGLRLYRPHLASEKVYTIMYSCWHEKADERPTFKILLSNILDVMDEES
Method: Degradation of BTK, CSK, ABL2, EPHA4 and YES1 was measured in HEK293A cells (Invitrogen R70507) expressing either BTK-GFP and RFP, CSK-GFP and mCherry, GFP-ABL2 and mCherry, EPHA4-GFP and mCherry, or YES1-GFP and mCherry from a stably integrated bicistronic BTK-GFP-iresRFP, CSK-GFP-CHYSEL-mCherry, GFP-ABL2-CHYSEL-mCherry, EPHA4-GFP-CHYSEL-mCherry, or YES1-GFP-CHYSEL-mCherry construct, respectively. Reduction of the GFP signal measured by flow cytometry served as readout for BTK, CSK, ABL2, EPHA4 and YES1 degradation after degrader treatment.
The mix was incubated for another 20 min at RT and then added on 1 mL of a freshly prepared suspension of HEK293FT cells in a well of a 6-well plate (concentration 1.2×10^6 cells/mL). 1 day after transfection, the medium was replaced with 1.5 mL of complete growth medium (DMEM high Glucose+10% FCS+1% L-Glutamine+1% NEAA+1% NaPyr.). 48 h post transfection supernatant containing viral transducing particles was collected and frozen at −80° C.
Infection was performed with 90 μL of collected supernatant containing viral transducing particles in 1 mL medium including 8 µg/mL polybrene. 24 h post infection, stably transfected cells were selected with blasticidin at a concentration of 8 μg/mL referred to as stable HEK293A sensor cells.
Stable HEK293A sensor cells were maintained in complete growth medium (DMEM high Glucose+10% FCS+1% L-Glutamine+1% NEAA+1% NaPyr.) with passaging performed twice per week. On Day 0, stable HEK293A sensor cells were seeded at 10,000 cells/well in a 96-well microtiter plate in 260 μL complete medium. On Day 1, cells were treated in duplicate with 10-point 1:3 dilution series of compound using the HP D300 Digital Dispenser (Tecan). DMSO concentrations were normalized across the plate to 0.1%. On Day 2, after 24 h of incubation at 37° C., treatment media was discarded, cells rinsed with 100 μL/well PBS and then detached using 40 μL trypsin/well for 5 min. Trypsin was neutralized with 100 μL/well PBS+20% FCS). Flow cytometry was performed on the samples using the BD FACS CANTO II (Becton Dickinson). Cell identification was then performed using forward (FSC) vs. side scatter (SSC) plots. Single cell discrimination is performed using SSC-Width (SSC-W) vs. SSC-Height (SSC-H) plots. Median GFP values for 5,000 single cells are used to determine BTK levels. Median GFP values from HEK293 Å-iresRFP are used as a background signal and thus defining 0% BTK signal. Median GFP values from DMSO treated HEK293 Å-BTK-GFP-iresRFP are used to define 100% BTK signal for subsequent DC50 curves (concentration at 50% BTK degradation). GFP and RFP are read in the channels called FITC and PE, respectively.
Concentration response curves plotting relative reduction of the GFP signal (measured by flow cytometry) versus 10 compound concentrations (starting concentration 10 μM, 3 fold dilution steps) of the compounds allowed generation of DC50 values. Protein abundance measured for the second generation vectors having a chysel was done in close analogy to the above described method for measuring BTK abundance.
Table 5 columns are defined as follows: DC50 refers to the concentration at which 50% maximal degradation was observed; deg Amax is the extent of degradation and the value refers to the % protein remaining at the concentration at which maximum degradation is seen.

CRBN, sequence (Q96SW2 whole entry): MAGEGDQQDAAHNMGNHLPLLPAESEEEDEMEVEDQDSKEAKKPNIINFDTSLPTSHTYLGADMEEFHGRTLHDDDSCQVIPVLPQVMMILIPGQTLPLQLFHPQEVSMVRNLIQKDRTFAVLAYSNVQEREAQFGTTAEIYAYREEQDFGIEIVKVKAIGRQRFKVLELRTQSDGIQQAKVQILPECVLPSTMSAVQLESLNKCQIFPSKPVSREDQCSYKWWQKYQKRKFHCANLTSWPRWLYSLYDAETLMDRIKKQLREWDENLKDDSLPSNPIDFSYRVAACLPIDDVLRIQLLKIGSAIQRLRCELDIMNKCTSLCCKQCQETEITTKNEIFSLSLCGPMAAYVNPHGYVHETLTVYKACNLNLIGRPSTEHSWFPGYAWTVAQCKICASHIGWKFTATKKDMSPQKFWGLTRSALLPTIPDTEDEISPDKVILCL

Compound	AC50 (CRBN)	BTK degradation Amax (BTK)	DC50 (BTK)	BTK degradation (BTK; extent of BTK degradation as stated in the text)
Cc1c(NC(=O)c2ccc(C(C)(C)O)cc2F)cc(F)cc1-c1ncnc2[nH]c(-c3ccc(CN4CCC(CCNC(=O)COc5cccc(N6CCC(=O)NC6=O)c5)CC4)cc3)cc12 [Compound 11, N-(3-(6-(4-((4-(2-(2-(3-(2,4-Dioxotetrahydropyrimidin-1(2H)-yl)phenoxy)acetamido)ethyl)piperidin-1-yl)methyl)phenyl)-7H-pyrrolo[2,3-d]pyrimidin-4-yl)-5-fluoro-2-methylphenyl)-2-fluoro-4-(2-hydroxypropan-2-yl)benzamide]	599 nM	2.3%	2.2 nM	–
Cc1ccc(S(=O)(=O)NCCCCCNCc2ccc(-c3cc4c(-c5cc(F)cc(NC(=O)c6ccc(C(C)(C)O)cc6F)c5C)ncnc4[nH]3)cc2)cc1N1CCC(=O)NC1=O [Compound 18, N-(3-(6-(4-(((5-(3-(2,4-dioxotetrahydropyrimidin-1(2H)-yl)-4-methylphenylsulfonamido)pentyl)amino)methyl)phenyl)-7H-pyrrolo[2,3-d]pyrimidin-4-yl)-5-fluoro-2-methylphenyl)-2-fluoro-4-(2-hydroxypropan-2-yl)benzamide]	3090 nM	7.6%	307 nM	–
Cc1c(NC(=O)N2C[C@H](CC(C)C)[C@@H](O)C2)cc(F)cc1-c1ncnc2[nH]c(-c3ccc(CN4CCC(OC5CCN(CCn6cccc(CN7CCC(=O)NC7=O)c6=O)CC5)CC4)cc3)cc12 [Compound 35, (3R,4S)—N-(3-(6-(4-((4-((1-(2-(3-((2,4-dioxotetrahydropyrimidin-1(2H)-yl)methyl)-2-oxopyridin-1(2H)-yl)ethyl)piperidin-4-yl)oxy)piperidin-1-yl)methyl)phenyl)-7H-pyrrolo[2,3-d]pyrimidin-4-yl)-5-fluoro-2-methylphenyl)-3-hydroxy-4-isobutylpyrrolidine-1-carboxamide]	742 nM	6.6%	2.1 nM	–
Cc1c(NC(=O)c2ccc(C(C)(C)O)cc2F)cc(F)cc1-c1ncnc2[nH]c(-c3ccc(CN(C)CCCNC(=O)COc4cccc(N5CCC(=O)NC5=O)c4)cc3)cc12 [Compound 12, N-(3-(6-(4-(((3-(2-(3-(2,4-dioxotetrahydropyrimidin-1(2H)-yl)phenoxy)acetamido)propyl)(methyl)amino)methyl)phenyl)-7H-pyrrolo[2,3-d]pyrimidin-4-yl)-5-fluoro-2-methylphenyl)-2-fluoro-4-(2-hydroxypropan-2-yl)benzamide]	7160 nM	2.3%	10.7 nM	–
COc1ccc(C(=O)N2CCOC3(CCN(Cc4ccc(-c5cc6c(-c7cc(F)cc(NC(=O)c8ccc(C(C)(C)O)cc8F)c7C)ncnc6[nH]5)cc4)CC3)C2)cc1N1CCC(=O)NC1=O [Compound 01, N-(3-(6-(4-((4-(3-(2,4-dioxotetrahydropyrimidin-1(2H)-yl)-4-methoxybenzoyl)-1-oxa-4,9-diazaspiro[5.5]undecan-9-yl)methyl)phenyl)-7H-pyrrolo[2,3-d]pyrimidin-4-yl)-5-fluoro-2-methylphenyl)-2-fluoro-4-(2-hydroxypropan-2-yl)benzamide]	1590 nM	98%	> 3330 nM	no significant BTK degradation was observed; also recorded: no degradation of BTK was observed
Cc1ncc(C(=O)NCCCCCN(C)Cc2ccc(-c3cc4c(-c5cc(F)cc(NC(=O)c6ccc(C(C)(C)O)cc6F)c5C)ncnc4[nH]3)cc2)cc1N1CCC(=O)NC1=O [Compound 17, 5-(2,4-Dioxotetrahydropyrimidin-1(2H)-yl)-N-(5-((4-(4-(5-fluoro-3-(2-fluoro-4-(2-hydroxypropan-2-yl)benzamido)-2-methylphenyl)-7H-pyrrolo[2,3-d]pyrimidin-6-yl)benzyl)(methyl)amino)pentyl)-6-methylnicotinamide]	3550 nM	16.6%	101 nM	–
Cc1c(NC(=O)c2ccc(C(C)(C)O)cc2F)cc(F)cc1-c1ncnc2[nH]c(-c3ccc(CN4CCOC(CN(C)CCOc5cccc(N6CCC(=O)NC6=O)c5)C4)cc3)cc12 (stereo not shown) [Compound 15, N-(3-(6-(4-((2-(((2-(3-(2,4-Dioxotetrahydropyrimidin-1(2H)-yl)phenoxy)ethyl)(methyl)amino)methyl)morpholino)methyl)phenyl)-7H-pyrrolo[2,3-d]pyrimidin-4-yl)-5-fluoro-2-methylphenyl)-2-fluoro-4-(2-hydroxypropan-2-yl)benzamide]	4110 nM	28.8%	21.7 nM	–
Cc1c(NC(=O)c2ccc(C(C)(C)O)cc2F)cc(F)cc1-c1ncnc2[nH]c(-c3ccc(CNCCN4CCC(Oc5ccc(N6CCC(=O)NC6=O)cc5)CC4)cc3)cc12 [Compound 29, N-(3-(6-(4-(((2-(4-(4-(2,4-dioxotetrahydropyrimidin-1(2H)-yl)phenoxy)piperidin-1-yl)ethyl)amino)methyl)phenyl)-7H-pyrrolo[2,3-d]pyrimidin-4-yl)-5-fluoro-2-methylphenyl)-2-fluoro-4-(2-hydroxypropan-2-yl)benzamide]	2390 nM	40.5%	40.2 nM	–
Cc1c(NC(=O)c2ccc(C(C)(C)O)cc2F)cc(F)cc1-c1ncnc2[nH]c(-c3ccc(CN4CCN(C(=O)N5CCN(CCC#Cc6cccc(N7CCC(=O)NC7=O)c6)CC5)CC4)cc3)cc12 [Compound 03, N-(3-(6-(4-((4-(4-(4-(3-(2,4-dioxotetrahydropyrimidin-1(2H)-yl)phenyl)but-3-yn-1-yl)piperazine-1-carbonyl)piperazin-1-yl)methyl)phenyl)-7H-pyrrolo[2,3-d]pyrimidin-4-yl)-5-fluoro-2-methylphenyl)-2-fluoro-4-(2-hydroxypropan-2-yl)benzamide]	257 nM	41.9%	24.8 nM	–
Cc1c(NC(=O)c2ccc(C(C)(C)O)cc2F)cc(F)cc1-c1ncnc2[nH]c(-c3ccc(CN4CCN(CCNC(=O)COc5ccc(N6CCC(=O)NC6=O)cc5)CC4)cc3)cc12 [Compound 26, N-(3-(6-(4-((4-(2-(2-(4-(2,4-Dioxotetrahydropyrimidin-1(2H)-yl)phenoxy)acetamido)ethyl)piperazin-1-yl)methyl)phenyl)-7H-pyrrolo[2,3-d]pyrimidin-4-yl)-5-fluoro-2-methylphenyl)-2-fluoro-4-(2-hydroxypropan-2-yl)benzamide]	3920 nM	10.6%	11.2 nM	–
Cc1c(NC(=O)c2ccc(C(C)(C)O)cc2F)cc(F)cc1-c1ncnc2[nH]c(-c3ccc(CN4CCN(C(=O)N5CCN(CCC#Cc6ccc(N7CCC(=O)NC7=O)cc6)CC5)CC4)cc3)cc12 [Compound 23, N-(3-(6-(4-((4-(4-(4-(4-(2,4-Dioxotetrahydropyrimidin-1(2H)-yl)phenyl)but-3-yn-1-yl)piperazine-1-carbonyl)piperazin-1-yl)methyl)phenyl)-7H-pyrrolo[2,3-d]pyrimidin-4-yl)-5-fluoro-2-methylphenyl)-2-fluoro-4-(2-hydroxypropan-2-yl)benzamide]	> 50500 nM	9.6%	2.8 nM	–
